{"source": "patent US9464120B2", "about": "“Compositions for treatment of celiac disease” (ImmusanT, Inc., priority 2008, dated 2016)", "key": {"[1]": {"system": "CD4+ T cells specific for NPL001", "test": "Proliferation of transferred CFSE labelled NPL001-specific CD4+ T cells after subcutaneous administration (adoptive transfer model)", "format": "in vivo", "settings": "previous mouse studies", "description": "The interaction between NPL001 (SEQ ID NO:228) and cognate T cells in vivo has been modelled by developing transgenic Black-6 mice expressing functional HLA-DR3 and -DQ2 (but not murine MHC Class II molecules) on antigen presenting cells (APC) who are transferred 3×10^6 CFSE labelled CD4^+ T cells specific for NPL001 (Chen Z., et al., 2006). The donor mouse (HH8-1) is transgenic for the NPL001-specific T cell receptor and human CD4 expressed on T cells, and also expresses HLA-DR3 DQ2 on APC. Overall 96% of the CD4^+ T cells in the HH8-1 mouse are clonal and specific for NPL001 (results not shown).\nFour days after subcutaneous administration (in the hind foot hock) of an equimolar mixture of NPL001, NPL002 and NPL003 in 50 μl saline, spleen, gut-draining mesenteric lymph nodes (MLN) and the local draining popliteal lymph nodes (PLN) are harvested. Isolated mononuclear cells are stained for hCD4, and the T-cell receptor α- and β-chains expressed on the HH8-1 NPL001-specific T cells (Vα8 and Vβ8). Proliferation of transferred CFSE labelled cells is measured as the % CFSE^pos cells having undergone one or more division, as indicated by dilution of CFSE staining."}, "[2]": {"test": "Pharmacokinetics after bolus intradermal injection in an adult rat", "format": "in vivo", "description": "To improve their chemical stability and increase resistance to exopeptidases, peptides were synthesised as acetate salts of “capped” N-pyroglutamate, C-amide: NPL001 (SEQ ID NO:228), NPL002 (SEQ ID NO:229) and NPL003 (SEQ ID NO:230) 15mers or 16mers with glutamate at sites predicted to be deamidated by tTG. Indeed, capping extended the half-lives of peptides from 10-12 minutes for free peptides: NPL033, NPL038, and NPL034 (SEQ ID NOs:13, 320 and 321) after bolus intradermal injection of 0.9 mg in 0.1 ml in an adult rat to 26-28 minutes with N-pyroglutamate and C-amidation (SEQ ID NOs:228, 229 and 230) or 19-24 minutes with N-acetylation and C-amidation (SEQ ID NOs:231, 232, and 233), (see Table 4)."}, "[3]": {"system": "gluten peptide-specific T cells in PBMC from HLA-DQ2+ celiac disease donors", "test": "IFNγ ELISpot of PBMC collected on day 6 after oral gluten challenge", "format": "cell-based, human"}, "[4]": {"system": "gluten peptide-specific T cells in PBMC from HLA-DQ2+ celiac disease donors", "settings": "day-6 PBMC, cited from earlier work"}}, "note": "Where two headings read alike, the source gives them in different places. Square brackets hold non-standard residues; d marks the D form. Peptide text beside a SMILES is read from it. pGlu = O=C1CC[C@@H](C(=O)O)N1", "data": [{"compound": "CC(C)C[C@H](NC(=O)[C@@H]1CCC(=O)N1)C(=O)N[C@@H](CCC(N)=O)C(=O)N1CCC[C@H]1C(=O)N[C@@H](Cc1ccccc1)C(=O)N1CCC[C@H]1C(=O)N[C@@H](CCC(N)=O)C(=O)N1CCC[C@H]1C(=O)N[C@@H](CCC(=O)O)C(=O)N[C@@H](CC(C)C)C(=O)N1CCC[C@H]1C(=O)N[C@@H](Cc1ccc(O)cc1)C(=O)N1CCC[C@H]1C(=O)N[C@@H](CCC(N)=O)C(=O)N1CCC[C@H]1C(=O)N[C@@H](CCC(N)=O)C(N)=O", "note": "[NPL001, pyroELQPFPQPELPYPQPQ-amide] ([pGlu]LQPFPQPELPYPQPQ-NH2)", "values": [{"measurement": "bioactivity in vivo of a single dose", "setting": "[1]", "result": "bioactive in vivo"}, {"measurement": "T1/2 half life", "setting": "[2]; adult rat, intradermal bolus injection 0.9 mg in 0.1 ml saline of equimolar mixture", "result": "T1/2 28.20 minutes"}, {"measurement": "AUC area under the curve (bioavailability)", "setting": "[2]; rat, in vivo, 0.9 mg", "result": "AUC 89350"}, {"measurement": "half-life", "setting": "[2]; rat, in vivo, intradermal bolus injection, 0.9 mg, adult rat, intradermal bolus injection 0.9 mg in 0.1 ml saline of equimolar mixture, read-out: T1/2 half life", "result": "26 to 28", "unit": "min"}]}, {"compound": "NC(=O)CC[C@H](NC(=O)[C@H](Cc1c[nH]c2ccccc12)NC(=O)[C@@H]1CCCN1C(=O)[C@H](Cc1ccccc1)NC(=O)[C@@H]1CCCN1C(=O)[C@H](CCC(N)=O)NC(=O)[C@H](CCC(=O)O)NC(=O)[C@@H]1CCCN1C(=O)[C@H](CCC(N)=O)NC(=O)[C@@H]1CCCN1C(=O)[C@H](Cc1ccccc1)NC(=O)[C@@H]1CCCN1C(=O)[C@H](CCC(N)=O)NC(=O)[C@@H]1CCC(=O)N1)C(=O)N1CCC[C@H]1C(N)=O", "note": "[NPL002, pyroEQPFPQPEQPFPWQP-amide] ([pGlu]QPFPQPEQPFPWQP-NH2)", "values": [{"measurement": "bioactivity after lysine-substitution of the central PQPEQPF sequence", "setting": "[3]; 32 μg/ml, after wheat (n=7), barley (n=9) or rye challenge (n=10)", "result": "abolished the bioactivity"}, {"measurement": "effect of anti-HLA-DQ / -DR preincubation on IFNγ ELISpot response", "setting": "[3]; PBMC from HLA DQA1*05 DQB1*02 homozygotes and heterozygotes, data not shown", "result": "anti-HLA-DQ but not -DR abolished"}, {"measurement": "AUC area under the curve (bioavailability)", "setting": "[2]; rat, in vivo, 0.9 mg", "result": "AUC 81514"}, {"measurement": "T1/2 half life", "setting": "[2]; rat, in vivo, 0.9 mg", "result": "T1/2 27.18 minutes"}, {"measurement": "half-life", "setting": "[2]; rat, in vivo, 0.9 mg, T1/2 half life", "result": "26 to 28", "unit": "min"}]}, {"compound": "QLQPFPQPELPYPQPQS (alpha-gliadin p57-73 QE65) [α-gliadin p57-73 QE65]", "values": [{"measurement": "IFNγ ELISpot response relative to tTG-treated gliadin in 3/17 donors", "setting": "[4]; 3/17 donors", "result": "less than 5%"}, {"measurement": "Median IFNγ ELISpot response as percentage of that to tTG-treated gliadin (500 μg/ml)", "setting": "[4]; n=17, range 0-155%", "result": 51, "unit": "%"}]}, {"compound": "QYEVIRSLVRTLPNM (QYEVIRSLVLRTLPNM; W36)", "values": [{"measurement": "requirement for deamidation for T cell stimulation", "setting": "[3]; second round libraries", "result": "Exceptions to the requirement for deamidation"}]}]}
